Test results: publication PMC4813245, “Discovery of Dual ETA/ETB Receptor Antagonists from Traditional Chinese Herbs through in Silico and in Vitro Screening” (International Journal of Molecular Sciences, 2016)
Like-named read-outs stand apart in the source and are kept apart here. Non-standard residues stand in square brackets, D forms with d. Residues, ends and D or L forms follow the SMILES beside them.

Assays:
[1] = target: T1, ETA receptor (ETAR) (Homo sapiens, UniProt P25101); experiment: ET-1-induced intracellular calcium mobilization (Fluo-4) in HEK293/ETAR cells, antagonist mode; type: cell-based
T1 construct: gene EDNRA
T1 sequence (P25101 21-427): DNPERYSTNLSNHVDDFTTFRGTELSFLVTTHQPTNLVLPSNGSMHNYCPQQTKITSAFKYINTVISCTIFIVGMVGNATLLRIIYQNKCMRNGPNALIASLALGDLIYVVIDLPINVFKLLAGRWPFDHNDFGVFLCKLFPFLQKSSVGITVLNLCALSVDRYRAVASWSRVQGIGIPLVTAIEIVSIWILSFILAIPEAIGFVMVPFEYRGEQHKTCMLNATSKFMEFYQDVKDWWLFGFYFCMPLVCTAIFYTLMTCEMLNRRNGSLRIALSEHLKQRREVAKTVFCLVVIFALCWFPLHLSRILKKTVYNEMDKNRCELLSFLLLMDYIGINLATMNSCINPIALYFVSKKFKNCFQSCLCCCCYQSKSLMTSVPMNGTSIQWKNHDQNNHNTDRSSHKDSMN

[2] = target: T2, ETB receptor (ETBR) (Homo sapiens, UniProt P24530); experiment: ET-1-induced intracellular calcium mobilization (Fluo-4) in HEK293/ETBR cells, antagonist mode; type: cell-based
T2 construct: gene EDNRB
T2 sequence (P24530 27-442): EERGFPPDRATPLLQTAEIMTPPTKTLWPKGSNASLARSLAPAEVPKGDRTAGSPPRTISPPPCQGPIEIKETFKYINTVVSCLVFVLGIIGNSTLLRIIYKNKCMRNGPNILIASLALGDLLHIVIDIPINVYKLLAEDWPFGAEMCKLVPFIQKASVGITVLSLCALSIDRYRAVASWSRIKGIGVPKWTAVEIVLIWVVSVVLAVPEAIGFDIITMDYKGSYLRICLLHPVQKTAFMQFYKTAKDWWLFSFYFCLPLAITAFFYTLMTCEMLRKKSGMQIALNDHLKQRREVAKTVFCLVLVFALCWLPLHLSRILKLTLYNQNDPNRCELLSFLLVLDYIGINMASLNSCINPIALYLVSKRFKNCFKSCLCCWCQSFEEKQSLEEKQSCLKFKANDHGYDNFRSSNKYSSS

Row | SMILES | IC50 [1] [µM] | IC50 ([2]; read-out: IC50) [µM] | IC50 [2] [µM]
1 | CC(C)C[C@@H]1NC(=O)[C@@H](C(C)C)NC(=O)[C@@H]2CCCN2C(=O)[C@@H](CC(=O)O)NC(=O)[C@@H](Cc2c[nH]c3ccccc23)NC1=O [BQ-123] (cyclo(L[dW][dD]P[dV])) | 0.00027 |  | 
2 | CCCC[C@@H](NC(=O)[C@@H](Cc1cn(C(=O)OC)c2ccccc12)NC(=O)[C@H](CC(C)(C)C)NC(=O)N1[C@H](C)CCC[C@@H]1C)C(=O)O [BQ-788] |  | 5e-05 | 
3 | COc1cccc2c1cc([N+](=O)[O-])c1c(C(=O)O)cc3c(c12)OCO3 [Aristolochic acid A] | 7.91 |  | 7.4
